Measurements: US11016085B2, “ZNT8 assays for drug development and pharmaceutical compositions” (THE JOHNS HOPKINS UNIVERSITY, priority 2016, dated 2021)
Entries after “also recorded” stand apart in the source; their conditions may differ.

T1: human ZnT8 W325 (W-form) (Homo sapiens, UniProt Q8IWU4, R325W)
T1 construct: The human ZnT8 cDNA insert was further subcloned into a pcDNA5/FRT/TO expression vector; made in house
T1 sequence (Q8IWU4 1-320 isoform Q8IWU4-2 R276W): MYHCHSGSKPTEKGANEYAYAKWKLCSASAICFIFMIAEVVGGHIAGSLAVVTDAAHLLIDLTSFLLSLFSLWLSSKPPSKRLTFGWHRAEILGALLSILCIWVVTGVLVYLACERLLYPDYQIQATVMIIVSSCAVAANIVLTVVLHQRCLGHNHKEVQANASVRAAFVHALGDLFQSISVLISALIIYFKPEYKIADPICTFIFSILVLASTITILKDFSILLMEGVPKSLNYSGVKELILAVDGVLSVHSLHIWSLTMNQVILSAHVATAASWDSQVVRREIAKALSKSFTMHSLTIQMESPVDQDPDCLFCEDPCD

T2: human ZnT8 R325 (R-form) (Homo sapiens, UniProt Q8IWU4)
T2 construct: The human ZnT8 cDNA insert was further subcloned into a pcDNA5/FRT/TO expression vector; made in house
T2 sequence (Q8IWU4 1-320 isoform Q8IWU4-2): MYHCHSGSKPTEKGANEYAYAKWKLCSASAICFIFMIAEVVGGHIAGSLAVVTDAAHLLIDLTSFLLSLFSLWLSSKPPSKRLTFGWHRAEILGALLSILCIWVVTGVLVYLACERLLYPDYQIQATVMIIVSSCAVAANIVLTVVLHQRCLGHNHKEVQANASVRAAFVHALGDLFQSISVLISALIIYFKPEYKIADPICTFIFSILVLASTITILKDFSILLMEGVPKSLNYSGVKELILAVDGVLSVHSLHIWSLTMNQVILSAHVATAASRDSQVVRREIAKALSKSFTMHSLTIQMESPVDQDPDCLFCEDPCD

T3: human ZnT8 AA-form (H220A, D224A) (Homo sapiens, UniProt Q8IWU4, D224A/H220A)
T3 construct: The human ZnT8 cDNA insert was further subcloned into a pcDNA5/FRT/TO expression vector; made in house
T3 sequence (Q8IWU4 1-320 isoform Q8IWU4-2 H171A/D175A): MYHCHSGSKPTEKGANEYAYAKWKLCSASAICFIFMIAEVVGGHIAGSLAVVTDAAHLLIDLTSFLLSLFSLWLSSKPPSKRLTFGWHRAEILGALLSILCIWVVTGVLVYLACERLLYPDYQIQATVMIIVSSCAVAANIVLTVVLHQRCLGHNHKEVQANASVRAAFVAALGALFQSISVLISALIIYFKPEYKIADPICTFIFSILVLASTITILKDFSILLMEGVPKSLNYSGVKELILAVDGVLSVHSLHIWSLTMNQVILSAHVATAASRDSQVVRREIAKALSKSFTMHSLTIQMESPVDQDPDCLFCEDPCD


Tests used:
human ZnT8 W325 (W-form) = target: T1, human ZnT8 W325 (W-form); experiment: Stopped-flow zinc transport kinetics in reconstituted proteoliposomes (Fluozin-3), W325 variant; assay type: biochemical; details: for effect on zinc transport activity (Vmax), W-form: lipid in reconstituted proteoliposomes, reference level = Vmax of the AA-form; for increase of Vmax, W-form: third anionic phospholipid added to DOPC:DOPE (2:1), giving 2:1:1
Experimental: (§1) 24 hour after induction, early-passage cells (passage number <10) at 90% confluence were scraped on ice and collected in the assay buffer supplemented with complete mini EDTA free protease cocktail tablets as specified by the manufacturer (Sigma). Cell suspension was homogenized by 40 passages through a high-shear fluid processor at 120 psi (Microfluidics), and then the membrane fraction was pelleted by ultracentrifugation at 258k×g for 60 min. The membrane pellet was re-suspended in a solubilization buffer (assay buffer plus 25% glycerol). DDM was added to solubilize the membrane according to the weight of the membrane pellet at a DDM-to-membrane ratio of 1:5 (wt/wt). The membrane crude extract was cleared off debris by ultracentrifugation at 258k×g for 15 min. The supernatant was applied to Talon affinity resins (GE Healthcare) and incubated at 8° C. on a rotary shaker for 45 min. The resin was then minimally washed by solubilization buffer supplemented with 25 mM imidazole, and then the immobilized ZnT8 variant was eluted by increasing the imidazole concentration to 250 mM. The molecular identity of the eluted ZnT8 variant was validated by western blotting using two antibodies to the C-terminal His-tag (Cell signaling Technology, cat. #2365S, catalog number, 1:1000 dilution) and to a linear peptide epitope (Proteintech, cat. #16169-1-AP, 1:500 dilution), respectively. The purity of the eluted proteins was assessed by SDS-PAGE with imperial protein staining (Thermo Scientific). Preformed liposomes with a defined lipid composition as indicated were prepared by mixing stock solutions of lipids in chloroform. The lipid mixture was dried under a stream of nitrogen gas, and traces of chloroform were removed by placing the lipids under vacuum overnight at room temperature. Dried lipids were rehydrated in a Pyrex borosilicate glass tube with assay buffer to a lipid concentration of 50 mg/ml, and then sonicated in a cup-horn sonicator at 100 W for 2 min (cycles of 10 son, 10 s off) in an ice-chilled water bath. The resulting liposome suspension was diluted with assay buffer to a final lipid concentration of 7.5 mg/ml with DDM added at a DDM/lipids ratio of 1:1 (wt/wt). The DDM-liposome mixture was incubated at room temperature on a rotary shaker for ˜3 hours until a gel-like appearance occurred. Reconstitution of ZnT8 variants took place immediately after eluted from Talon resins by mixing a ZnT8 variant, or an equal volume of elution buffer, with DDM-destabilized preformed liposomes at an estimated protein-to-lipid wt/wt ratio of 1:200. The reconstitution mixture was incubated on a rotary shaker at 8° C. for 1 hr, then freshly prepared, methanol-washed polystyrene beads (Bio-Beads, SM-2, Bio-Rad) were added to the reconstitution mixture in a 60:1 wt/wt ratio to DDM. After incubation overnight at 8° C., the resulting proteoliposomes or liposomes (negative control) were separated from the detergent-soaked polystyrene beads, and pelleted by ultracentrifugation (258k×g, 2 hr). […]
(§2) Experiments were performed at 8° C. on a SFM-3000 stopped-flow apparatus (Bio-logic). […] The reactants were excited at 490 nm, and emissions were monitored at 525 nm using a 10 nm bandpass cut-off filter. Kinetic traces were recorded over a time course of 10 seconds with instrument offset and gain kept constant for all the experiments. […]

human ZnT8 R325 (R-form) = target: T2, human ZnT8 R325 (R-form); experiment: Stopped-flow zinc transport kinetics in reconstituted proteoliposomes (Fluozin-3), R325 variant; assay type: biochemical; details: for effect on zinc transport activity (Vmax), R-form: lipid in reconstituted proteoliposomes, reference level = Vmax of the AA-form; for increase of Vmax, R-form: third anionic phospholipid added to DOPC:DOPE (2:1), giving 2:1:1
Experimental: as §1, §2

[1] = target: T3, human ZnT8 AA-form (H220A, D224A); experiment: Stopped-flow zinc transport kinetics in reconstituted proteoliposomes (Fluozin-3), AA-form; assay type: biochemical
Experimental: 24 hour after induction, early-passage cells (passage number <10) at 90% confluence were scraped on ice and collected in the assay buffer supplemented with complete mini EDTA free protease cocktail tablets as specified by the manufacturer (Sigma). Cell suspension was homogenized by 40 passages through a high-shear fluid processor at 120 psi (Microfluidics), and then the membrane fraction was pelleted by ultracentrifugation at 258k×g for 60 min. The membrane pellet was re-suspended in a solubilization buffer (assay buffer plus 25% glycerol). DDM was added to solubilize the membrane according to the weight of the membrane pellet at a DDM-to-membrane ratio of 1:5 (wt/wt). The membrane crude extract was cleared off debris by ultracentrifugation at 258k×g for 15 min. The supernatant was applied to Talon affinity resins (GE Healthcare) and incubated at 8° C. on a rotary shaker for 45 min. […] The purity of the eluted proteins was assessed by SDS-PAGE with imperial protein staining (Thermo Scientific). […]
as §2

HEK293 cells = experiment: Vesicular zinc uptake in real time (Zinpyr-1, 96-well microplate); assay type: cell-based, human; details: 383 nM free zinc, 1 uM pyrithione, 15° C., induced expression
Experimental: The free zinc concentration in the ADA-EGTA dual buffering system was calculated using maxchelator (maxchelator.stanford.edu). Induced cells were loaded with Zinpry-1, trypsinized, resuspended in an ice-chilled plain uptake buffer with no ZnSO4 added. Cells with the expression of each ZnT8 variant or the empty vector were counted, adjusted to a density of 4×10^6 cells/ml, and dispensed in 50-[…] aliquots to a clear-bottom 96-well microplate (Greiner bio-one). Initial Zinpry-1 fluorescence (F0) was recorded from the bottom on a Flexstation-3 microplate reader (Molecular dynamics), and then zinc-uptakes were initiated by adding 50 ul uptake buffers with 2× free zinc concentrations to each well. The Zinpry-1 fluorescence increases in response to various free zinc concentrations were recorded at 15° C. in the kinetic mode of Flexstation over a time course of 10 min and normalized to Zinpyr-1 loading (F0). The fluorescence responses reached a linear phase in 2 min after the uptake temperature approached equilibrium. The rates of zinc uptake were calculated by linear regression of the Zinpyr-1 signals from 2 to 10 min. All measurements were performed in 12 replicates, and fluorescence readings were obtained by averaging over 8-10 measurements that gave consistent results. Most aberrant measurements occurred in the first and last two columns of the microplate due to pipetting errors.

Molecule | effect on zinc transport activity (Vmax), W-form (human ZnT8 W325 (W-form)) | effect on zinc transport activity (Vmax), R-form (human ZnT8 R325 (R-form)) | increase of Vmax, W-form (human ZnT8 W325 (W-form)) | increase of Vmax, R-form (human ZnT8 R325 (R-form)) | other results
CC(C)CCC[C@@H](C)[C@H]1CC[C@H]2[C@@H]3CC=C4C[C@@H](O)CC[C@]4(C)[C@H]3CC[C@]12C [cholesterol] | below the reference level of the AA-form; also recorded: strongly inhibit | below the reference level of the AA-form; also recorded: strongly inhibit | – | – | –
CCCCCCCC/C=C\CCCCCCCC(=O)OC[C@H](COP(=O)(O)OC[C@H](N)C(=O)O)OC(=O)CCCCCCC/C=C\CCCCCCCC [DOPS, 1,2-dioleoyl-sn-glycero-3-phospho-L-serine] | – | – | 2.3 fold | 3.5 fold | –
CCCCCCCC/C=C\CCCCCCCC(=O)OC[C@H](COP(=O)(O)OCC(O)CO)OC(=O)CCCCCCC/C=C\CCCCCCCC (stereo partly shown) [DOPG] | – | – | 2.0 fold | 6.1 fold | –
Lysophosphatidylcholine [LPC] | below the reference level of the AA-form; also recorded: strongly inhibit | below the reference level of the AA-form; also recorded: strongly inhibit | – | – | –
CCCCCCCC/C=C\CCCCCCCC(=O)OC[C@H](COP(=O)(O)OCCN)OC(=O)CCCCCCC/C=C\CCCCCCCC [DOPE, 1,2-di-(9Z-octadecenoyl)-sn-glycero-3-phosphoethanolamine] | modest effects | progressively reduced the Vmax | – | – | –
AA-form: His-tagged human ZnT8 with H220A, D224A double mutation of the predicted transport-site (protein, UniProt Q8IWU4 1-369, looked up, variant H220A D224A, His tag, His-tagged human ZnT8 with H220A, D224A double mutation of the predicted transport-site) Proton-coupled zinc …: MEFLERTYLVNDKAAKMYAFTLESVELQQKPVNKDQCPRERPEELESGGMYHCHSGSKPTEKGANEYAYAKWKLCSASAICFIFMIAEVVGGHIAGSLAVVTDAAHLLIDLTSFLLSLFSLWLSSKPPSKRLTFGWHRAEILGALLSILCIWVVTGVLVYLACERLLYPDYQIQATVMIIVSSCAVAANIVLTVVLHQRCLGHNHKEVQANASVRAAFVAALGALFQSISVLISALIIYFKPEYKIADPICTFIFSILVLASTITILKDFSILLMEGVPKSLNYSGVKELILAVDGVLSVHSLHIWSLTMNQVILSAHVATAASRDSQVVRREIAKALSKSFTMHSLTIQMESPVDQDPDCLFCEDPCD | – | – | – | – | Km increase compared to the R-form [1]: 24 fold; Vmax/Km decrease compared to the R-form [1]: 59 fold; rate of vesicular zinc accumulation (HEK293 cells): significantly faster than the basal level of Blk
